In ChEMBL document CHEMBL1123813, “Chemistry and inhibitory activity of long chain fatty acid oxidation of emeriamine and its analogues” (J Med Chem, 1987) one finds inhibition data, which are given here for 15 compounds.

Usually inhibition stands for the share of the control response that was lost under treatment. Read a high inhibition as strong suppression.

The species named for test [1] is Rattus norvegicus. The test is described as follows: Inhibition of carnitine-dependent oxidation of [1-14C]palmitate to 14CO2 in rat liver mitochondria was measured in vitro at 2 mM concentration.
For test [2], the species on record is Rattus norvegicus. The test is described as follows: Inhibition of carnitine-dependent oxidation of [1-14C]palmitate to 14CO2 in rat liver mitochondria was measured in vitro at 2*10e-1 mM concentration. The class given is functional.
For test [3], the species on record is Rattus norvegicus. The test is described as follows: Inhibition of carnitine-dependent oxidation of [1-14C]palmitate to 14CO2 in rat liver mitochondria was measured in vitro at 2*10e-3 mM concentration. The class given is functional.
For test [4], the species on record is Rattus norvegicus. The test is described as follows: Inhibition of carnitine-dependent oxidation of [1-14C]palmitate to 14CO2 in rat liver mitochondria was measured in vitro at 2*10e-2 mM concentration. The class given is functional.

Molecules are shown by their SMILES.

In turn, `CCCC(=O)NC(CC(=O)[O-])C[N+](C)(C)C` (stereo not drawn) came in with an inhibition in the test listed under Rattus norvegicus [1] of 50%.

For `COC(=O)NC(CC(=O)[O-])C[N+](C)(C)C` (stereo not drawn), the inhibition in the test listed under Rattus norvegicus [2] and in the test listed under Rattus norvegicus [1] was 0% each time.

Regarding `C[N+](C)(C)CC(N)CC(N)=O` (stereo not drawn), the inhibition in the test filed under Rattus norvegicus [3] is 10%; in the test filed under Rattus norvegicus [4], 27%.

On to `CCCCCCCCCCCCCC(=O)NC(CC(=O)[O-])C[N+](C)(C)C` (stereo not drawn), for which the inhibition in the test filed under Rattus norvegicus [3] and in the test filed under Rattus norvegicus [4] was 100% throughout.

On to `C[N+](C)(C)CC(CC(=O)[O-])NC(=O)OCc1ccccc1` (stereo not drawn), for which the inhibition was 85% in the test filed under Rattus norvegicus [2] and 98% in the test filed under Rattus norvegicus [1].

For `CCOC(=O)CC(N)C[N+](C)(C)C` (stereo not drawn), the inhibition in the test filed under Rattus norvegicus [3] stood at 37%; in the test listed under Rattus norvegicus [4], 85%.

As to `C[N+](C)(C)C[C@H](N)CC(=O)[O-]`, the inhibition in the test filed under Rattus norvegicus [3] stood at 59%; in the test filed under Rattus norvegicus [4], 90%.

On to `CNC(CC(=O)[O-])C[N+](C)(C)C` (stereo not drawn), for which the inhibition in the test filed under Rattus norvegicus [2] amounted to 89%; in the test listed under Rattus norvegicus [1] it was 100%.

`CC(=O)NC(CC(=O)[O-])C[N+](C)(C)C` (stereo not drawn): the figures for the inhibition in the test listed under Rattus norvegicus [2] and in the test filed under Rattus norvegicus [1] were 6% and 38%, respectively.

As for `CCCCCCCCCCCCCCCC(=O)NC(CC(=O)[O-])C[N+](C)(C)C` (stereo not drawn), the inhibition in the test listed under Rattus norvegicus [3] and in the test filed under Rattus norvegicus [4] was 100% each time.

In turn, `CCC(=O)NC(CC(=O)[O-])C[N+](C)(C)C` (stereo not drawn) registered an inhibition in the test filed under Rattus norvegicus [1] of 44%.

Take `C[N+](C)(C)C[C@@H](CC(=O)[O-])NC=O`: the inhibition in the test listed under Rattus norvegicus [2] was found to be 53%; in the test filed under Rattus norvegicus [1] it was 84%.

For the compound `Cc1ccc(S(=O)(=O)NC(CC(=O)[O-])C[N+](C)(C)C)cc1` (stereo not drawn), the inhibition in the test filed under Rattus norvegicus [2] turned out to be 84%; in the test listed under Rattus norvegicus [1] it was 100%.

For `COC(=O)CC(N)C[N+](C)(C)C` (stereo not drawn), the inhibition came to 26% in the test filed under Rattus norvegicus [3] and 73% in the test filed under Rattus norvegicus [4].

On to `C[N+](C)(C)CC(CC(=O)[O-])NC(N)=O` (stereo not drawn), for which the values for the inhibition in the test filed under Rattus norvegicus [2] and in the test filed under Rattus norvegicus [1] were 84% and 72%, respectively.
